The values below are quoted from earlier work in US20100022600A1, “METHODS AND COMPOSITIONS FOR TREATING CENTRAL NERVOUS SYSTEM TUMORS” (priority 2006, published 2010).

The subject of one series is BT4Cn rat glioma cells. Particulars: Carcinogenesis 2001; 22: 1747-55; cited from earlier work.
The test system of a further series is C6 cells. Particulars: J Neurochem 2002; 81: 1052-60; cited from earlier work.
A further series concerns cholesterol biosynthesis. Particulars: PPARγ-independent; Diabetes 1999; 48: 254-60; cited from earlier work.
The test system of another series is acyl-CoA synthetase. Particulars: PPARγ-independent; J Biol Chem 2001; 276: 33736-40; cited from earlier work.

`O=C(Nc1ccccc1)c1cc([N+](=O)[O-])ccc1Cl` [GW9662]: the “effect on growth inhibition by PPARγ agonists” value with BT4Cn rat glioma cells is reported as “abolished”.
On to `CC1(COc2ccc(CC3SC(=O)NC3=O)cc2)CCCCC1` (stereo not shown) [ciglitazone, 5-[4-[(1-methylcyclohexyl)methoxy]benzyl]thiazolidine-2,4-dione], for which, in the series with C6 cells, the “redifferentiation of C6 cells” value is reported as “increased redifferentiation”.
For the molecule `Cc1c(C)c2c(c(C)c1O)CCC(C)(COc1ccc(CC3SC(=O)NC3=O)cc1)O2` (single isomer, unassigned; (+)) [troglitazone, (+)-5 [[4-[(3,4-dihydro-6-hydroxy-2,5,7,8-tetramethyl-2H-1-benzopyran-2-yl)methoxy]phenyl]methyl]-2,4thiazolidinedione], the cholesterol biosynthesis entry in the series with cholesterol biosynthesis is given as “inhibit”. Besides, in the series with acyl-CoA synthetase, the acyl-CoA synthetase result is given as “inhibit”.
